Laboratory results reported in paper PMC6269653, “Stability and Antioxidant Activity of Semi-synthetic Derivatives of 4-Nerolidylcatechol” (Molecules, 2012).
pIC50: −log10 of the molar value. “And” between values parts separate entries of the source, which are not always exact repeats. Identical values can stand only once. “Also recorded” adds a separate entry of the source. Like-named read-outs stand apart in the source and are kept apart here. Marks after values point to notes of the source that are not given here.

Legend:
[1] = tested on: rat brain homogenates; design: method as in ref 8 = [8]; 8. De Freitas P.C.D. Atividade Antioxidante de Espécies Medicinais da Família Piperaceae: Pothomorphe umbellata (L.) Miq. e Piper regnelli (Miq.) C. DC Ph.D. Thesis University of São Paulo (USP) São P; settings: inhibition of spontaneous lipoperoxidation; cited from earlier work
[2] = tested on: Plasmodium falciparum; design: method as in PMID 17568942; settings: cited from earlier work
[3] = tested on: human topoisomerase I; design: method as in PMID 10364848; settings: cited from earlier work
[4] = tested on: normal fibroblast cells; design: method as in PMID 19059332; settings: cited from earlier work
[5] = ABTS radical-scavenging activity; type: biochemical; settings: compounds tested at 250 µM, mean ± standard deviation, n = 3
Method: The ABTS assay used herein was based on the method of Re et al. with slight modifications. Substances at concentrations of 250 µM, BHT or BHA were added to dilute ABTS solution and the absorbance at […] was measured. The antioxidant activity was calculated using the equation: % inhibition = 100 × (1 − sample abs/control abs).

[6] = DPPH radical-scavenging activity; type: biochemical; settings: compounds tested at 250 µM, mean ± standard deviation, n = 3
Method: The measurement of the scavenger activity of DPPH• was carried out according to the method of Molineux with modifications. Substances at 250 µM were added, at an equal volume, to the methanol solution of DPPH• ([…]). After 15 min at room temperature, the absorbance was recorded at 517 nm (sample abs). The experiment was repeated three times. BHT, BHA were used as controls. Values denote percentage of DPPH free radical inhibition. The antioxidant activity was calculated using the equation: % inhibition = 100 × (1 − sample abs/control abs).

[7] = tested on: KB tumor cells; design: method as in PMID 10364848; settings: cited from earlier work
[8] = tested on: 3T3L1 mouse embryonic fibroblast cell line; assay: Cellular antioxidant activity (oxidation of DCFH-DA); type: cell-based; design: inhibition of the oxidation of DCFH-DA in 3T3L1 cells: concentration or dose not given beside the values; settings: for loss of antioxidant activity after storage: DMSO solution stored at −20 °C for 30 days; for inhibition of the oxidation of DCFH-DA in 3T3L1 cells: over the observation period of 60 min
Method: These tests evaluate the reducing effect of a given substance on the radical species formed in situ during these assays leading to a decrease in color versus controls that is measured spectrophotometrically. […] Thus, at a concentration of 250 µM, 4-NC inhibited DPPH• and ABTS+• by 97% and 95%, respectively. Mono-O-substituted 4-NC derivatives 2–5 inhibited ABTS+• by 89–93%. […] The antioxidant activity was also evaluated in mouse embryonic 3T3L1 fibroblasts. In this assay DCFH-DA (2',7'-dichlorofluorescein diacetate) is hydrolyzed by intracellular esterases and then oxidized by reactive oxygen species (ROS) to the fluorescent compound 2'-7'-DCF. An active antioxidant substance can inhibit the transformation of fatty acids to fatty acid hydroperoxides in the cell membranes and thereby inhibit the oxidation of DCFH-DA.
The antioxidant activity of 4-NC and semi-synthetic derivatives of 4-NC was evaluated on the 1st and 30th days after dissolving the substances in DMSO at a concentration of 10 mM and storage in a freezer at −20 °C. This experiment permitted the evaluation of the relative stability of the antioxidant activity of 4-NC, derivatives of 4-NC, BHT and BHA. Thus, cellular antioxidants were evaluated using the mouse embryonic fibroblast 3T3L1 cell line. […] The presence of mono-O or di-O,O substituent groups in the 4-NC derivatives can confer stability relative to 4-NC. Such chemical stability is highly desirable when contemplating the use of such substances in cosmetic and pharmaceutical formulations and foods. Here, 4-NC dissolved in DMSO lost more than 80% of its antioxidant activity after 30 days in the freezer.
Intracellular ROS production was detected using the non-fluorescent cell permeating compound, 2'7'-dichlorofluorescein diacetate (DCF-DA), as described by Wolfe and Liu. DCF-DA is hydrolyzed by intracellular esterases and then oxidized by hydroperoxides into the fluorescent compound, 2'-7'-DCF. 3T3-L1 cells were seeded at a density of 6 × 10^4 cells/well in a 96-well microplate in 100 μL of growth medium. 24 h after seeding, the growth medium was removed and the wells were washed with PBS. Then, a 10 μM solution of DCFH-DA dissolved in Hank’s buffer (100 μL) was added to wells and incubated for 30 min at 37 °C and 5% CO2. The cells were washed first with PBS (100 μL) then EEP (100 µL) and samples having different concentrations were added. The fluorescence was immediately measured at an excitation wavelength of 485 nm and emission wavelength of 520 nm over 60 min at 5 min intervals. Controls with/without DCFH-DA were prepared and subjected to analogous procedures. Quercetin, BHA and BHT were used as positive controls of antioxidant activity.

[9] = tested on: melanoma cell lines (SK-Mel-28, 103 and 147); design: method as in PMID 19059332; settings: read-out: IC50 in vitro growth of melanoma cell lines; cited from earlier work
[10] = tested on: tumor cell lines; settings: cited from earlier work
[11] = tested on: Plasmodium berghei; settings: cited from earlier work
[12] = tested on: Mouse embryonic fibroblast cells (3T3L1 line); assay: Cell viability assay (alamar blue); type: cell-based; settings: ‡ >50 µg/mL, read-out: Toxicity Mouse embryonic fibroblast cells (3T3L1 line) (IC50)
Method: The cytotoxicity of 4-NC and derivatives of 4-NC 1–8 to mouse embryonic fibroblast line 3T3L1 was evaluated using alamar blue to measure cell survival/proliferation. The substances at different concentrations (12.5, 25 and 50 µM) were separately incubated with cells and the number of viable cells was counted after 24, 48 and 72 h. […] O,O-Dibenzyl 4-NC (1) was not active (i.e. not toxic to A. franciscana) in the brine shrimp assay (Table 1).
3T3-L1 cells (mouse embryonic fibroblasts) were obtained from the Cell Bank of Rio de Janeiro, Brazil and were maintained in Dulbecco’s Modified Eagle Medium (DMEM) which was supplemented with 10% fetal bovine serum (FBS), penicillin (100 U/mL) and streptomycin (100 U/mL). The cells were incubated at 37 °C in a humidified atmosphere containing 5% of CO2.
The cytotoxicity of 4-NC and its semi-synthetic derivatives 1–8 to the 3T3L1 mouse embryonic fibroblast cell line fibroblasts was determined by the alamar blue method as described by Nakayama and co-workers. The alamar blue assay is a colorimetric assay involving the cellular reduction of resazurin to resorufin. Briefly, adherent cells (5 × 10^3 cells/well) were grown in 96-well tissue culture plates and exposed to substances (50, 25 and 12.5 μM) for 24, 48 and 72 h. After incubation, the alamar blue solution (10 µL of 0.4% alamar blue (resazurin) in PBS) was added and the cells were incubated for 2 h at 37 °C. Fluorescence was measured (excitation at 545 nm and emission at 595 nm) and expressed as a percentage of the cells in the control after background fluorescence was subtracted. The assays were performed in triplicate.

[13] = Brine shrimp assay; design: species or system Artemia franciscana; settings: Artemia franciscana (brine shrimp), in vivo, read-out: Toxicity Brine shrimp (Artemia franciscana) (LC50)
[14] = tested on: Artemia franciscana; assay: Brine shrimp assay; settings: in vivo
[15] = tested on: leukemia cells (HL-60 strain); design: method as in PMID 19084293; settings: read-out: IC50 growth of leukemia cells; cited from earlier work
[16] = tested on: colon tumor cells (HCT-8 strain), central nervous system tumor cells (SF295 strain) and leukemia cells (HL-60 strain); design: method as in PMID 19084293; settings: HCT-8, SF295 and HL-60; read-out: cytotoxicity IC50; cited from earlier work
[17] = † >500 µg/mL, 4 and 5 tested separately
[18] = Mus musculus, 3T3-L1, alamar blue

Molecule | ABTS (%) percentage of inhibition [5] | LC50 [13, 17] [µM] | cytotoxic activity against Artemia franciscana in the brine shrimp assay [14] | DPPH• (%) percentage of inhibition [6] | pIC50 [12, 18] | also measured
4-nerolidylcatechol [Compound 4-NC] | – | – | – | – | – | in vitro antioxidant activity relative to α-tocopherol (vitamin E) [1]: approximately 20 times; in vitro activity against Plasmodium falciparum [2]: high in vitro activity; inhibition of human topoisomerase I [3]: inhibits; pIC50 [4]: 4.30; ABTS (%) percentage of inhibition ([5]; 250 µM): 95% and 94.82 ± 0.22 ^a %; DPPH• (%) percentage of inhibition ([6]; 250 µM): 97% and 96.53 ± 0.50 ^a %; toxicity in vitro to KB tumor cells [7]: toxic; loss of antioxidant activity after storage ([8]; 3T3L1 cells): more than 80%; inhibition of the oxidation of DCFH-DA in 3T3L1 cells [8]: ≥ 20%; pIC50 [9]: 4.40 to 4.70; pIC50 [10]: 4.41 to 4.71; in vivo activity in Plasmodium berghei-infected mice [11]: low in vivo activity; also recorded: little activity; pIC50 ([12]; alamar blue): 4.50
COc1ccc(O)c(C(C)(C)C)c1 [BHA, butylated hydroxyanisole, reference compound] | 94.71 ± 0.47 ^a % | – | – | – | – | DPPH• (%) percentage of inhibition ([6]; 250 µM): 98% and 97.97 ± 0.10 ^a %; loss of antioxidant activity after storage ([8]; 3T3L1 cells): ≥ 70%
Cc1cc(C(C)(C)C)c(O)c(C(C)(C)C)c1 [BHT, butylated hydroxytoluene, reference compound] | 93.13 ± 0.18 ^a % | – | – | – | – | DPPH• (%) percentage of inhibition ([6]; 250 µM): 17% and 16.84 ± 0.81 ^c %; increase of antioxidant activity after storage ([8]; DMSO solution, 30 days of storage in the freezer, 3T3L1 cells): approximately 100%
C=CC(C)(CC/C=C(\C)CCC=C(C)C)c1ccc(OCc2ccccc2)c(OCc2ccccc2)c1 (centres unmarked) [Compound 1, O,O-Dibenzyl 4-NC] | 7.97 ± 2.72 ^b % | > 1000 | not active | 4.35 ± 0.71 ^c % | < 4.00 | activity against tumor cells [10]: inactive
C=CC(C)(CC/C=C(\C)CCC=C(C)C)c1ccc(OCc2ccccc2)c(O)c1 (centres unmarked) [Compound 2, 1-O-benzyl 4-NC] | 91.12 ± 0.68 ^a % | 1000 | weak cytotoxic activity | 44.20 ± 0.01 ^b % | – | activity against tumor cells [10]: inactive
C=CC(C)(CC/C=C(\C)CCC=C(C)C)c1ccc(O)c(OCc2ccccc2)c1 (centres unmarked) [Compound 3, 2O-monobenzyl derivative of 4-NC] | 93.31 ± 0.30 ^a % | > 1200 | weak cytotoxic activity | 48.09 ± 1.33 ^b % | < 3.91 | pIC50 ([10]; read-out: cytotoxicity IC50 against four tumor cell lines, four tumor cell lines): 4.38 to 4.60
C=CC(C)(CC/C=C(\C)CCC=C(C)C)c1ccc(OC)c(O)c1 (centres unmarked) [Compound 4, 1O-monomethyl derivative of 4-NC] | – | 600 | weak cytotoxic activity | – | – | pIC50 [15]: 4.24
C=CC(C)(CC/C=C(\C)CCC=C(C)C)c1ccc(O)c(OC)c1 (centres unmarked) [Compound 5, 2O-monomethyl 4-NC derivative] | – | 1200 | weak cytotoxic activity | – | – | pIC50 [16]: 4.20 to 4.36
C=CC(C)(CC/C=C(\C)CCC=C(C)C)c1ccc(OC(=O)c2ccccc2)c(OC(=O)c2ccccc2)c1 (centres unmarked) [Compound 6, O,O-dibenzoyl 4-NC] | 8.83 ± 0.23 ^b % | – | moderately toxic | 3.46 ± 0.63 ^c % | < 4.02 | LC50 [13]: 69 µM; inhibition of the oxidation of DCFH-DA in 3T3L1 cells [8]: ≥ 20%; activity against tumor cells [10]: inactive
C=CC(C)(CCC1OC1(C)CCC1OC1(C)C)c1ccc(OC(C)=O)c(OC(C)=O)c1 (centres unmarked) [Compound 8] | 0.31 ± 0.01 ^c % | – | – | 7.39 ± 3.66 ^c % | < 3.94 | inhibition of the oxidation of DCFH-DA in 3T3L1 cells [8]: ≥ 20%
O=c1c(O)c(-c2ccc(O)c(O)c2)oc2cc(O)cc(O)c12 [Quercetin, quercetin, reference compound] | 99.7 ± 0.02 ^a % | – | – | 91.4 ± 0.12 ^a % | – | loss of antioxidant activity after storage ([8]; 3T3L1 cells): ≥ 70%
